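Method: 48-hour compound exposure of cells in 96-well plates, five concentrations, linear interpolation of endpoints. TGI denotes the concentration required for complete inhibition of growth.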
Assays:
Test in all cases: DTP human tumour cell line panel, 48 h
A549 NSCLC = system: A549 NSCLC
ACHN renal = system: ACHN renal
CCRF-CEM leukemia = system: CCRF-CEM leukemia
COLO 205 colon = system: COLO 205 colon
HCT-116 colon = system: HCT-116 colon
HS 578T breast = system: HS 578T breast
HT29 colon = system: HT29 colon
IGROV1 ovarian = system: IGROV1 ovarian
K-562 leukemia = system: K-562 leukemia
NCI-H23 lung = system: NCI-H23 lung
OVCAR-4 ovarian = system: OVCAR-4 ovarian
PC-3 prostate = system: PC-3 prostate
RPMI-8226 leukemia = system: RPMI-8226 leukemia
RXF 393 renal = system: RXF 393 renal
SF-295 CNS = system: SF-295 CNS
TK-10 renal = system: TK-10 renal
UO-31 renal = system: UO-31 renal
MALME-3M melanoma = system: MALME-3M melanoma

| Structure (SMILES) | TGI (A549 NSCLC) | TGI (ACHN renal) | TGI (CCRF-CEM leukemia) | TGI (COLO 205 colon) | TGI (HCT-116 colon) | TGI (HS 578T breast) | TGI (HT29 colon) | TGI (IGROV1 ovarian) | TGI (K-562 leukemia) | TGI (NCI-H23 lung) | TGI (OVCAR-4 ovarian) | TGI (PC-3 prostate) | TGI (RPMI-8226 leukemia) | TGI (RXF 393 renal) | TGI (SF-295 CNS) | TGI (TK-10 renal) | TGI (UO-31 renal) | TGI (MALME-3M melanoma) |
| --- | --- | --- | --- | --- | --- | --- | --- | --- | --- | --- | --- | --- | --- | --- | --- | --- | --- | --- |
| CC1(C)OC(=O)N(c2ccccc2)C12C=Cc1cccc([N+](=O)[O-])c1O2 (stereo not given) | > 100 µM | > 100 µM | > 100 µM | > 100 µM | > 100 µM | > 100 µM | > 100 µM | > 100 µM | > 100 µM | > 100 µM | > 100 µM | > 100 µM | > 100 µM | > 100 µM | > 100 µM | > 100 µM | > 100 µM |  |
| CC(=O)OCC1OC(Nn2c(=O)[nH]c3ccccc3c2=O)C(OC(C)=O)C(OC(C)=O)C1OC(C)=O (stereo not given) | > 100 µM | > 100 µM | > 100 µM | > 100 µM | > 100 µM | > 100 µM | > 100 µM | > 100 µM | > 100 µM | > 100 µM |  | > 100 µM | > 100 µM | > 100 µM | > 100 µM |  | > 100 µM | > 100 µM |
| COc1cc(/C=N/n2c(-c3ccccc3)nn(C(C)=O)c2=O)cc(OC)c1OC | > 94.6 µM | > 64.6 µM | > 100 µM | 4.55 µM | > 100 µM | > 26.9 µM | > 44.3 µM | > 100 µM | > 100 µM | > 49.4 µM | > 100 µM | > 81.8 µM | 9.59 µM | > 88.4 µM | 26.9 µM | 31.8 µM | 54.4 µM | > 46.6 µM |
| COC(=O)C(Cc1c[nH]c2ccccc12)NC(=O)c1ccc(-c2ccc(Cl)cc2Cl)o1 (stereo not given) | > 100 µM | > 100 µM | > 100 µM | > 100 µM | > 100 µM | > 100 µM | > 100 µM | > 100 µM | > 100 µM | > 100 µM | > 100 µM | 49.5 µM | > 100 µM | > 100 µM | > 100 µM | > 100 µM | > 100 µM | > 100 µM |
| CC(=O)Nc1c(C)cc2c(nc3n2CCC3OC(C)=O)c1[N+](=O)[O-] (stereo not given) | > 100 µM | > 100 µM | > 100 µM | > 100 µM | > 100 µM | > 100 µM | > 100 µM | > 100 µM | > 100 µM | > 100 µM | > 100 µM | > 100 µM | > 100 µM | > 100 µM | > 100 µM |  | > 100 µM | > 100 µM |
| COc1ccc(N2C(=O)C3c4[nH]c5ccc(Br)cc5c4C4CCC(C(C)(C)C)CC4C3C2=O)cc1 (stereo not given) | > 100 µM | > 100 µM | > 100 µM | > 100 µM | > 100 µM | > 100 µM | > 100 µM | > 100 µM | > 100 µM | > 100 µM | > 100 µM | > 100 µM | > 100 µM | > 100 µM | > 100 µM | > 100 µM |  | > 100 µM |
| O=C(CN1CCOCC1)c1ccc2c(c1)oc(=O)n2CCN1CCOCC1 |  |  | > 100 µM | > 100 µM | > 100 µM | > 100 µM | > 100 µM | > 100 µM | > 100 µM |  |  | > 100 µM | > 100 µM | > 100 µM | > 100 µM |  |  | > 100 µM |
| Cc1ccc(S(=O)(=O)Oc2nc3ccccc3nc2OS(=O)(=O)c2ccc(C)cc2)cc1 | > 100 µM | > 100 µM | > 100 µM | > 100 µM | > 100 µM | > 100 µM | > 100 µM | > 100 µM | > 100 µM | > 100 µM |  | > 100 µM | > 100 µM | > 100 µM | > 100 µM | > 100 µM | > 100 µM | 35 µM |
| CCOC(=O)C1(C(=O)OCC)OC(C)=NC1(C(=O)OC)C(=O)OC | > 100 µM | > 100 µM | > 100 µM | > 100 µM | > 100 µM | > 100 µM | > 100 µM | > 100 µM | > 100 µM | > 100 µM | > 100 µM | > 100 µM | > 24.6 µM | > 100 µM | > 100 µM | > 100 µM | > 100 µM | > 100 µM |
| N#Cc1c(-c2ccc(Cl)cc2)[nH]c(=O)n(C2OC(CO)C(O)C(O)C2O)c1=O (stereo not given) | > 100 µM | > 100 µM | > 100 µM | > 100 µM | > 100 µM | > 100 µM | > 100 µM | > 100 µM | > 100 µM | > 100 µM | > 100 µM | > 100 µM | > 100 µM | > 100 µM | > 100 µM | > 100 µM | > 100 µM |  |
| CCC(=O)Nc1ccc(NC(C#N)c2cccc(Oc3ccccc3)c2)cc1 (stereo not given) | > 100 µM | > 100 µM | > 100 µM | > 100 µM | > 100 µM | > 100 µM | > 100 µM | > 100 µM | > 100 µM | > 100 µM | > 100 µM | > 100 µM | 66.9 µM | > 100 µM | > 100 µM |  | > 100 µM | 94.2 µM |
| OC(c1ccc(C(F)(F)F)cc1)C(F)(F)c1nc2ccccc2o1 (stereo not given) |  | > 100 µM | > 100 µM | > 100 µM | > 100 µM | > 100 µM | > 100 µM | > 100 µM | > 100 µM | > 100 µM | > 100 µM | > 100 µM | > 100 µM | > 100 µM | > 100 µM | > 100 µM | > 100 µM |  |
| Cn1c(=O)c2c(nc3n2CCCC(=O)N3CC(O)CCl)n(C)c1=O (stereo not given) | > 100 µM | > 100 µM | > 100 µM | > 100 µM | > 100 µM | > 100 µM | > 100 µM | > 100 µM | > 100 µM | > 100 µM | > 100 µM | > 100 µM | > 100 µM | > 100 µM | > 100 µM | > 100 µM | > 100 µM |  |
| CCOC(=O)C1=CCOc2cc(N(C)C)ccc21 | > 100 µM | > 100 µM | 64 µM | > 100 µM | > 100 µM | > 100 µM | > 100 µM | > 100 µM | > 100 µM | > 100 µM |  | > 100 µM | > 100 µM | > 100 µM | > 100 µM | > 100 µM | > 100 µM | > 100 µM |
| O=c1ccn(COC(COCc2ccccc2)COCc2ccccc2)c(=O)[nH]1 |  |  | > 100 µM | > 100 µM | > 100 µM | > 100 µM | > 100 µM | > 100 µM | > 100 µM | > 100 µM | > 100 µM | > 100 µM | > 100 µM | > 100 µM | > 100 µM | > 100 µM | > 100 µM | > 100 µM |
| NCCCC[C@H](N)C(=O)Nc1ccc(-c2nc3ccccc3s2)cc1 | > 100 µM | 55 µM | 23.6 µM | 33.6 µM | 33 µM | 47.6 µM | 30.1 µM | 31.5 µM | 36.3 µM | 67.7 µM | > 100 µM | > 100 µM |  | > 100 µM | 31 µM | > 100 µM | 26 µM | 34.9 µM |
| CC(C)NC(=O)N(Nc1ccccc1)C(C)(C)C | > 100 µM | > 100 µM | > 100 µM | > 100 µM | > 100 µM | > 100 µM | > 100 µM | > 100 µM | > 100 µM | > 100 µM | > 100 µM | > 100 µM |  | > 100 µM | > 100 µM | > 100 µM | > 100 µM | > 100 µM |
| Nc1nc2ncc(CNc3ccc(C(=O)NC(CCC(=O)O)C(=O)O)cc3)nc2c(=O)[nH]1 (stereo not given) | > 100 µM | > 100 µM | > 100 µM |  |  | > 100 µM | > 100 µM | > 100 µM | > 100 µM | > 100 µM | > 100 µM | > 100 µM | > 100 µM | > 100 µM | > 100 µM | > 100 µM | > 100 µM | > 100 µM |
| S=C1CCSc2c(ccc3ccccc23)N1 | > 100 µM | > 100 µM | > 100 µM | > 100 µM | > 100 µM | > 100 µM | > 100 µM | > 100 µM | > 100 µM | > 100 µM | > 100 µM | > 100 µM |  | > 100 µM | > 100 µM | > 100 µM | > 100 µM | > 100 µM |
| NC(=O)NCCCC(NC(=O)OCCCCCCn1ccc(=O)[nH]c1=O)C(=O)O (stereo not given) | > 100 µM | > 100 µM | > 100 µM | > 100 µM | > 100 µM | > 100 µM | > 100 µM | > 100 µM | > 100 µM | > 100 µM | > 100 µM | > 100 µM | > 100 µM | > 100 µM | > 100 µM | > 100 µM | > 100 µM |  |
| CCOC(=O)C1c2[nH]c3ccccc3c2CCN1C(=O)c1ccc(OC)o1 (stereo not given) |  | > 10 µM | > 10 µM | > 10 µM |  | > 10 µM | > 10 µM | > 10 µM | > 10 µM | > 10 µM | > 10 µM | > 10 µM | > 10 µM | > 10 µM | > 10 µM | > 10 µM | > 10 µM | 2.78 µM |

Reference: PubChem BioAssay (NCI)
